Converted amounts (≈) assume the structure as drawn. “Also recorded” adds a separate entry of the source. Like-named read-outs stand apart in the source and are kept apart here.
What was measured:
Assay type in all cases: physicochemical
[1] = Photo stress stability, amorphous form versus Crystal Form A; conditions: for Degradation: 48 hours of exposure to photo-stress conditions (cool white fluorescent lamp and UV fluorescent lamp 320-400 nm)
Text: The amorphous Form and the Crystal Form A of Compound BMX samples were exposed at a cool white fluorescent lamp that has an output similar to that specified by ISO 10977 and UV fluorescent lamp with a spectral distribution from 320 nm to 400 nm for evaluating the photo stress stability.

[2] = Competitive slurry experiments to determine the most stable polymorphic form; conditions: competitive slurry in 2-propanol, XRPD
Description: No material of Crystal Form C, D, or E was available since these could not be reproduced. The competitive slurry was performed using Crystal Forms B, […], F and poorly crystalline material, with 10 mg of each form being added in two 1 mL vials.
The competitive slurry experiment in 2-methyl tetrahydrofuran gave a clear solution and the experiment in 2-propanol gave a white slurry.

[3] = Solubility of Crystal Form A in process solvents and aqueous buffer systems; conditions: for solubility at 24 h: thermodynamic from solid
Description: The solubility of this form was tested in the process solvents (Ethyl acetate and hexane) and in aqueous buffer systems. 100 mg of Crystal Form A of Compound BMX was weighed into 4 mL vials with 2 mL of the specified solvent/aqueous buffer system being added. These solutions were shaken at room temperature for 24 hours. The pH was monitored in time and remained in the correct range. Samples were filtered and diluted (5× in ACN/MeOH 1/1) and measured using H PLC. The concentration of the samples is determined using a calibration line.

[4] = Hygroscopicity determination by DVS
Description: The hygroscopicity of the Crystal Form A of Compound BMX was determined using Surface Measurement Systems Ltd. DVS resolution equipment. The sample was loaded into balance pan, typically 10-30 mg, and equilibrated at 0% relative humidity (RH). When the material has dried, the RH is increased with 10% per step for 1 hour per increment, ending at 95% RH. After completion of the sorption cycle, the sample was dried using the same method. […] The software used for data collection is DVS Control Software for 21 CFR Part 11 v1.0.3.0. Data analysis is performed using DVS Standard Analysis Suite v7.2.0.9 (Standard).

[5] = Stability test of Form B slurried in water
[6] = Stability of polymorphic forms stored at 40° C./75% RH for 4 days
Description: Both Crystal Form A and Crystal Form D were found in different solvent combinations using different crystallization techniques. […] Crystal Form C was only observed once, being found in a slurry experiment at 50° C. in DMSO/Ethanol (60/40-%). […] All plates were stored at 40° C./75% RH for 4 days in order to determine the stability of the polymorphic forms.

[7] = Solubility of amorphous material of Compound BMX by the shake flask method; conditions: for solubility at 24 h / solubility at 15 min: organic solvent or mixture, thermodynamic from solid, shake flask
Description: The solubility of amorphous material of Compound BMX was determined by the shake flask method. The amorphous material was obtained by dissolving 500 mg of the Crystal From A of Compound BMX in 10 mL dichloromethane, this solution was evaporated to dryness in vacuum conditions (0 mbar, RT).
The solvents for the solubility determination were selected based on the Principal Component Analysis (PCA) of properties, which means that some pharmaceutically unattractive solvents were included to create a better understanding of the parameter space. The Principal Component Analysis focusses on polarity, polarizability and hydrogen bonding.
Subsequently, the samples were filtered and diluted for LC analysis and the concentration is determined using a calibration line.

[8] = solvent Methyl-tert-butyl ether

## COc1ccc(COc2c(/C=C/C(=O)NO)ccc(OC)c2CC=C(C)C)cc1 [Crystal Form A]
[1]
  Degradation: 10%
[1]; photo-stress, 48 hours
  Stability under stress conditions compared with the amorphous form: significantly more stable than the amorphous form
[2]
  Most stable polymorphic form: most stable form
[2]; listed as Cystal Form A
  Most stable polymorphic form: thermodynamically most stable form
[3]; Ethyl acetate, room temperature, 24 hours
  Solubility: 20780 µg/mL (≈ 52.3 mM)
[3]; FaSSIF, pH 6.5, fassif, pH 6.5, room temperature, 24 hours
  solubility at 24 h: 10 µg/mL (≈ 0.0252 mM)
[3]; FeSSIF, pH 5.8, fessif, pH 5.8, room temperature, 24 hours
  solubility at 24 h: 180 µg/mL (≈ 0.453 mM)
[3]; Hexane, water, FaSSGF, FASSIF and phosphate buffer pH 7.4
  Solubility (in words): insoluble
[3]; all solvents/buffers of Table 6, 24 hours at room temperature
  Changes in polymorphic form after solubility test (XRPD): No changes in polymorphic form were observed
[3]; ethyl acetate, organic solvent or mixture, room temperature, 24 hours
  solubility at 24 h: 20800 µg/mL (≈ 52.3 mM)
[4]; 0% to 95% RH, 10% per step, 1 hour per increment
  Mass uptake (DVS): 0.035 wt %
[4]; DVS
  Hygroscopicity (in words): non-hygroscopic; also recorded: not hygroscopic
[4]; after DVS up to 95% RH
  Stability under humid conditions (XRPD, DSC/TGA, microscopy pre and post DVS): stable under these humid conditions

## COc1ccc(COc2c(/C=C/C(=O)NO)ccc(OC)c2CC=C(C)C)cc1 [Crystal Form B]
[5]; seeds of Crystal Form A, slurrying at 50° C.
  Conversion on seeding with Crystal Form A: could not be converted into Crystal Form A
[5]; slurry in water
  Stability in water (in words): very stable in water; also recorded: remained stable in water
[5]; water, room temperature, 4 hours, 24 hours, 4 days and 7 days
  Changes in XRPD on slurrying in water: No changes were observed in the XRPD

## COc1ccc(COc2c(/C=C/C(=O)NO)ccc(OC)c2CC=C(C)C)cc1 [amorphous material of Compound BMX]
[1]; listed as amorphous form
  Degradation: 20%
[6]; listed as amorphous solid
  Stability of the polymorphic form: converted into a new polymorphic form: Crystal Form E
[7]; solvent 2-Ethly-1-butanol
  solubility at 24 h: 8800 µg/mL (≈ 22.1 mM)
  USP classification: Slightly soluble
[7]; solvent Acetonitrile
  solubility at 15 min: 10000 to 33000 µg/mL (≈ 25.2 to 83 mM)
  USP classification: Sparingly soluble
[7]; solvent Anisole
  solubility at 24 h: 9700 µg/mL (≈ 24.4 mM)
  USP classification: Slightly soluble
[7]; solvent Dimethyl sulfoxide
  solubility at 15 min: 31000 to 94000 µg/mL (≈ 78 to 236 mM)
  USP classification: Soluble
[7]; solvent Ethyl butyl ketone
  solubility at 15 min: 10000 to 33000 µg/mL (≈ 25.2 to 83 mM)
  USP classification: Sparingly soluble
[7]; solvent Ethyl sulfoxide
  solubility at 24 h: 6900 µg/mL (≈ 17.4 mM)
  USP classification: Slightly soluble
[7]; solvent Methanol
  solubility at 15 min: 31000 to 94000 µg/mL (≈ 78 to 236 mM)
  USP classification: Soluble
[7]; [8]
  solubility at 24 h: 3300 µg/mL (≈ 8.3 mM)
  USP classification: Slightly soluble
[7]; solvent Water
  USP classification: Practically insoluble
[7]; solvent n-Heptane
  USP classification: Practically insoluble

## COc1ccc(COc2c(/C=C/C(=O)NO)ccc(OC)c2CC=C(C)C)cc1 [Crystal Form C]
[6]
  Stability of the polymorphic form: unstable and converted into Crystal Form D soon
[6]; listed as Cystal Form C
  Stability of the polymorphic form: not a stable form and converted into polymorphic Crystal Form D
